Measured values as given in doi:10.1101/2020.07.28.224543v1, “Diminazene resistance in Trypanosoma congolense is linked to reduced mitochondrial membrane potential and not to reduced transport capacity” (biorxiv, 2020).
pEC50: −log10 of the molar value.

Columns and labels:
T. congolense IL3000 = tested on: T1, T. congolense IL3000; assay: microbe, parasite or virus in culture; design: Alamar blue (resazurin) viability assay of in vitro grown trypanosomes, fluorescence read-out; settings: Trypanosoma congolense, parental strain IL3000
T1 construct: IL3000
Experimental: At the point of adaptation to 550 nM, the level of DA resistance and the extent of any cross-resistance with the diamidine drugs pentamidine and DB829, and with oxaboroles AN7973 and SCYX7158, was tested using an assay based on the viability dye Alamar blue (resazurin), in which live trypanosomes (but not dead ones) reduce blue and non-fluorescent resazurin to pink, fluorescent resorufin. This assay yields a fluorescent output that is proportional to the number of cells in the well [36]. […] Resistance to DA, as measured in this assay, was ~2.3-3-fold, and highly significant (Fig 1A for fold differences and P values, Table 1 for EC50 values). […] Importantly, there was no cross-resistance with isometamidium, nor with either of the oxaboroles tested, AN7973 and SCYX7158. To further investigate the limits of cross-resistance with other diamidines, a series of bis-benzofuran analogues were tested (Table 1). These analogues were chosen to explore the effect of variable linker length between the benzofuramidine end groups, varying inter-amidine distance as well as the flexibility of the molecule.

TbAT1 = biological target: T2, TbAT1 (Trypanosoma brucei, UniProt Q9Y0I0); assay: inhibition of [3H]-diminazene uptake in transfected bloodstream-form trypanosomes; type: cell-based; settings: read-out: % inhibition at 1 mM
T2 construct: gene AT1; full-length transporter expressed in T. b. brucei bloodstream-form clone B48 (lacks native TbAT1/P2 and wild-type TbAQP2)
T2 sequence (Q9Y0I0 entry or part of it): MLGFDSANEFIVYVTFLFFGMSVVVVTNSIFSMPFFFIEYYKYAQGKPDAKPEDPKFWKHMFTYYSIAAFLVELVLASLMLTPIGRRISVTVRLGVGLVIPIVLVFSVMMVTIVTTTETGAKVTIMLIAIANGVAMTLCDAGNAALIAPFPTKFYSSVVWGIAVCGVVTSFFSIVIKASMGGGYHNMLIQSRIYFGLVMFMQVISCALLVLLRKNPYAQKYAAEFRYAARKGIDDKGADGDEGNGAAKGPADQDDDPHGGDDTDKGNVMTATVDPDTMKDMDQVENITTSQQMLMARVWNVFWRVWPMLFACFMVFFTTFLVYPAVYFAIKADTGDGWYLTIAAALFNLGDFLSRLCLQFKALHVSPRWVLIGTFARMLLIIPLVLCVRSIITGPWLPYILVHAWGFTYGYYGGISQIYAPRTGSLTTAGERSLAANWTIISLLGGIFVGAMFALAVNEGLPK

Row | SMILES | pEC50 (T. congolense IL3000; first series) | inhibition at 1000 µM (TbAT1) | pEC50 (T. congolense IL3000; second series)
1 | CC1(C)OB(O)c2cc(NC(=O)c3ccc(-n4cccn4)cc3Cl)ccc21 [AN7973] | 6.92 | – | –
2 | Nc1ncnc2c1ncn2[C@@H]1O[C@H](CO)[C@@H](O)[C@H]1O [Ado, adenosine] | – | 100% | –
3 | N=C(N)c1ccc(N=NNc2ccc(C(=N)N)cc2)cc1 [DA, diminazene aceturate] | 6.57 | – | 6.48
4 | CC[n+]1c(-c2ccccc2)c2cc(N/N=N/c3cccc(C(=N)N)c3)ccc2c2ccc(N)cc21 [Isometamidium] | 8.01 | – | –
5 | N=C(N)c1ccc(OCCCCCOc2ccc(C(=N)N)cc2)cc1 [Pentamidine] | 6.00 | – | –
6 | CC1(C)OB(O)c2cc(NC(=O)c3ccc(F)cc3C(F)(F)F)ccc21 [SCYX-7158] | 6.28 | – | –
